Test results reported in patent US10781325B2, “Curable composition, curable ink, accommodating container, image forming device, image forming method, cured matter, and acrylamide compound” (Ricoh Company, Ltd., priority 2016, dated 2020).

Assays:
[1] = tested on: female rats of Slc: Wistar/ST series; test: Limiting test based on Acute Oral Toxicity Test (OECD TG423, Acute Toxic Class Method); format: in vivo, rat; settings: single gavage dose 2,000 mg/kg weight of body, six animals per testing article, observed 14 days
Excerpt: The curable compounds of Example 1a, Example 4a, Comparative Example 1a, and Comparative Example 2a were subject to the limiting test based on Acute Oral Toxicity Test (OECD TG423) according to Acute Toxic Class Method in the following manner to evaluate safeness.
Regarding the curable compound of the present disclosure as test article, 24 female rats of Slc: Wistar/ST series of 5 week old as animal used were ordered for Japan SLC, Inc. The animals were habituated for one week. No abnormalities were found in all of the rats (animals used) during the habituation period.
Based on the body weights measured two days before the initiation of administration, they were categorized into four groups (six rats per group) by the body weight stratified random sampling method so that the body weight of each individual was within ±20% of the average body weight of all of the individuals. The individuals not classified into the groups were excluded from the test.
First group, Example 1a: Testing article: curable compound represented by the chemical structure a1-1, Amount of administration: 2,000 mg/kg weight of body, number of animals used: six
Second group, Example 4a: Testing article: curable compound represented by the chemical structure d1-1, Amount of administration: 2,000 mg/kg weight of body, number of animals used: six
Third group, Comparative Example 1a: Testing article: N,N-diethylacrylamide represented by the chemical structure (1), Amount of administration: 2,000 mg/kg weight of body, number of animals used: six
Fourth group, Comparative Example 2a: Testing article: Acrylamide represented by the chemical structure (2), Amount of administration: 2,000 mg/kg weight of body, number of animals used: six
100 mg of the testing article was weighed using a measuring flask and water was added as solvent to make 1 mL in total. […] The preparation liquid of the testing article was prepared on the day of administration.
The animals used were on fasting except for water for 17 hours before administration. The mass was measured after the fasting and the testing article was provided by gavage administration one time using a gastric tube. After the administration, no food was given for another three to four hours.
The administration was on one dose of 2,000 mg/kg weight of body and six animals were used per testing article.
Note that the observation was counted from the day of the initiation of administration being regarded as Day 1.
The number of animals who died during the test period was counted.

[2] = Measuring of viscosity of curable compound (cone plate type rotatory viscometer); format: physicochemical; settings: cone rotor, 50 rpm
Experimental: Viscosity of the thus-obtained curable compound was measured by a cone plate type rotatory viscometer (VISCOMETER TVE-22L, manufactured by TOKI SANGYO CO., LTD.) using a cone rotor (1°34′×R24) at a number of rotation of 50 rpm and at 25 degrees C. of hemathermal circulating water.

SMILES	Safeness (number of dead) [1]	Viscosity (25 degrees C., mPA · s) [2] [mPA · s]
C=CC(=O)N(CC)CC [Comparative Example 1a, N,N-diethylacrylamide, reference compound]	6	2.6
C=CC(=O)N(C)CCOC [Comparative Example 2a, reference compound]	6	2.4
C=CC(=O)N(CC(=O)OCC)CC(=O)OCC [Comparative Example 3a, reference compound]	–	69.2
C=CC(=O)N(C)CCOC(C)=O [Example 1a]	3	8.4
C=CC(=O)N(C)CCOC(=O)C(C)C [Example 2a]	–	9.5
C=CC(=O)N(CCOC(C)=O)C(C)(C)C [Example 3a]	–	16.4
C=CC(=O)N(C)CC(=O)OC [Example 4a]	0	12.3
C=CC(=O)N(C)CC(=O)OCC [Example 5a]	–	11.4
C=CC(=O)N(C)CC(=O)OCCCC [Example 6a]	–	11.9
C=CC(=O)N(C)CC(=O)OC(C)C [Example 7a]	–	14.1
C=CC(=O)N(CCC)CC(=O)OCC [Example 8a]	–	20.4
C=CC(=O)N(CC(=O)OC)C(C)C [Example 9a]	–	25.4
C=CC(=O)N(CC(=O)OC(C)C)C(C)C [Example 10a]	–	22.1
C=CC(=O)N(CCCCCC)CC(=O)OC [Example 11a]	–	29.9
C=CC(=O)N(CCCCCC)CC(=O)OCCCC [Example 12a]	–	23.7
C=CC(=O)N(C)C(C)C(=O)OC (stereo not shown) [Example 13a]	–	8.9
C=CC(=O)N(C)C(C)C(=O)OCC (stereo not shown) [Example 14a]	–	6.9
C=CC(=O)N(C)C(C)C(=O)OC(C)C (stereo not shown) [Example 15a]	–	6.8
